Results: US20180153995A1, “USE OF ANTIMICROBIAL POLYMERS FOR RE-SENSITIZATION OF MICROORGANISMS UPON EMERGENCE OF RESISTANCE TO ANTI-MICROBIAL AGENTS” (Technion Research & Development Foundation Limited, priority 2008, published 2018)
Read-outs that look alike come from different tables or passages of the source.

Tests used:
S. aureus 43300 = test: Antibiotic MIC by microdilution with or without sub-MIC polymer; format: cell-based, Staphylococcus aureus
Experimental: (§1) MICs were determined by microdilution susceptibility testing in 96-well plates (by Nunc) using inocula of 10^5 bacteria per ml. Cell populations were evaluated by optical density measurements at 620 nm and were calibrated against a set of standards. Hundred (100) μl of a bacterial suspension were added to 100 μl of culture medium (control) or to 100 μl of culture medium containing various polymer concentrations in 2-fold serial dilutions. Inhibition of proliferation was determined by optical density measurements at 620 nm after an incubation period of 24 hours at 37° C.
Table 8 below presents the MIC values of antibiotics in presence or absence of C12(5-ene)KKNC12KNH2 (SEQ ID NO: 2) at sub-MIC levels of the polymer, as measured for the S. aureus strains 43300 (ATCC), 15819 (clinical isolate), 15877 (clinical isolate) and 15852 (clinical isolate). MICs were determined by microdilution susceptibility testing in 96-well plates (Nunc) using inocula of 10^5 bacteria per ml. One hundred (100) μl of a bacterial suspension were added to 100 μl of culture medium (control) or to 100 μl of culture medium containing various antibiotic and C12(5-ene)KKNC12KNH2 (SEQ ID NO: 2) concentrations in 2-fold serial dilutions. Inhibition of proliferation was determined by optical density measurements at 620 nm after an incubation period of 24 hours at 37° C.
(§2) 100 μl of a bacterial suspension were added to 100 μl of culture medium (control) or to 100 μl of culture medium containing various antibiotic and C14(9-ene)KKNC12KNH2 (SEQ ID NO: 5) concentrations in 2-fold serial dilutions. Inhibition of proliferation was determined by optical density measurements at 620 nm after an incubation period of 24 hours at 37° C.

P. mirabilis 1285 [1] = format: cell-based, Proteus mirabilis; conditions: no polymer (None), Table 12
Experimental: as §1, §2

P. mirabilis 1285 [2] = format: cell-based, Proteus mirabilis
E. coli AG100/ks = test: Antibiotic MIC with or without sub-MIC polymer (Tables 20, 21); format: cell-based, Escherichia coli
P. aeruginosa 8732 = test: Antibiotic MIC by microdilution with or without sub-MIC polymer; format: cell-based, Pseudomonas aeruginosa
Experimental: as §1
Inhibition of proliferation was determined by optical density measurements at 620 nm after an incubation period of 24 hours at 37° C.

E. coli AG100 = test: Antibiotic MIC with or without sub-MIC polymer (Tables 20, 21); format: cell-based, Escherichia coli
MRSA 15852 = format: cell-based, Staphylococcus aureus; conditions: S. aureus 15852
Experimental: The fractionary inhibitory (FIC) concentration index for combinations of two antimicrobial agents was calculated as follows: FIC index=FICA+FICB=A/MICA+B/MICB where A and B are the MIC values of agent A and agent B in the combination, MICA and MICB are the MICs of agent A and agent B alone, and FICA and FICB are the FICs of agent A and agent B.
The FIC indexes were interpreted as follows: less than 0.5 indicates a clear re-sensitizing effect; from 0.5 to 4 indicates a marginal or null re-sensitizing effect; and over 4 indicates antagonism.

[3] = +¼ MIC (1.6 μM) C14(9-ene)KKNC12KNH2
[4] = +½ MIC (3.12 μM) C12(5-ene)KKNC12KNH2
[5] = +½ MIC (3.12 μM) C14(9-ene)KKNC12KNH2
[6] = +⅓ MIC (2.1 μM) C14(9-ene)KKNC12KNH2
[7] = +¼ MIC (1.6 μM) C12K(KNC12K)2NH2
[8] = +½ MIC (3.12 μM) C12K(KNC12K)2NH2
[9] = +⅓ MIC (2.1 μM) C12K(KNC12K)2NH2
[10] = P. aeruginosa 8732, +½ MIC (3.12 μM) C16(9-ene)KKNC12KNH2
[11] = P. aeruginosa 8732, +⅓ MIC (2.1 μM) C16(9-ene)KKNC12KNH2
[12] = P. aeruginosa 8732, no polymer (None), Table 10

CCN1CCN(C(=O)N[C@@H](C(=O)N[C@@H]2C(=O)N3[C@@H]2SC(C)(C)[C@@H]3C(=O)O)c2ccccc2)C(=O)C1=O [Piperacillin, piperacillin]
128 µg/mL: Antibiotic MIC (MRSA 15852; +¼ MIC (1.6 μM) C12(5-ene)KKNC12KNH2) | Antibiotic MIC (MRSA 15852; [4]) | Antibiotic MIC (MRSA 15852; +⅓ MIC (2.1 μM) C12(5-ene)KKNC12KNH2) | Antibiotic MIC (MRSA 15852; no polymer (None), Table 8)
1 to 2 µg/mL: Antibiotic MIC in presence of C12K(NC8K)5NH2 (SEQ ID NO: 3), +¼ MIC (E. coli AG100; polymer at ¼ of its MIC)
>512-512 μg/ml: Antibiotic MIC in presence of C12K(NC8K)5NH2 (SEQ ID NO: 3), +½ MIC (E. coli AG100/ks; polymer at ½ of its MIC) | Antibiotic MIC in presence of C12K(NC8K)7NH2 (SEQ ID NO: 4), +½ MIC (E. coli AG100/ks; polymer at ½ of its MIC)
16 µg/mL: Antibiotic MIC (S. aureus 43300; [3]) | Antibiotic MIC (S. aureus 43300; [5]) | Antibiotic MIC (S. aureus 43300; [6]) | Antibiotic MIC (S. aureus 43300; no polymer (None), Table 8) | Antibiotic MIC (S. aureus 43300; no polymer (None), Table 9) | Antibiotic MIC (S. aureus 43300; no polymer (None), Table 10)
0.5 µg/mL: Antibiotic MIC in presence of C12K(NC8K)5NH2 (SEQ ID NO: 3), +½ MIC (E. coli AG100; polymer at ½ of its MIC) | Antibiotic MIC in presence of C12K(NC8K)7NH2 (SEQ ID NO: 4), +½ MIC (E. coli AG100; polymer at ½ of its MIC)
256 µg/mL: Antibiotic MIC (P. aeruginosa 8732) | Antibiotic MIC (P. aeruginosa 8732; [10]) | Antibiotic MIC (P. aeruginosa 8732; [11]) | Antibiotic MIC (P. aeruginosa 8732; [12]) | Antibiotic MIC (MRSA 15852; +¼ MIC (1.6 μM) C12KKNC12KNH2) | Antibiotic MIC (MRSA 15852; +½ MIC (3.12 μM) C12KKNC12KNH2) | Antibiotic MIC (MRSA 15852; +⅓ MIC (2.1 μM) C12KKNC12KNH2) | Antibiotic MIC (MRSA 15852; no polymer (None), Table 11)
>512 µg/mL: Antibiotic MIC, None (E. coli AG100/ks; antibiotic alone (Table 20)) | Antibiotic MIC, None (E. coli AG100/ks; antibiotic alone (Table 21)) | Antibiotic MIC in presence of C12K(NC8K)5NH2 (SEQ ID NO: 3), +¼ MIC (E. coli AG100/ks; polymer at ¼ of its MIC) | Antibiotic MIC in presence of C12K(NC8K)7NH2 (SEQ ID NO: 4), +¼ MIC (E. coli AG100/ks; polymer at ¼ of its MIC) | Antibiotic MIC in presence of C12K(NC8K)5NH2 (SEQ ID NO: 3), +⅓ MIC (E. coli AG100/ks; polymer at ⅓ of its MIC) | Antibiotic MIC in presence of C12K(NC8K)7NH2 (SEQ ID NO: 4), +⅓ MIC (E. coli AG100/ks; polymer at ⅓ of its MIC)
512 µg/mL: Antibiotic MIC (P. mirabilis 1285 [1]) | Antibiotic MIC (P. mirabilis 1285 [2]; [7]) | Antibiotic MIC (P. mirabilis 1285 [2]; [8]) | Antibiotic MIC (P. mirabilis 1285 [2]; [9])
1 µg/mL: Antibiotic MIC (S. aureus 43300; [4]) | Antibiotic MIC in presence of C12K(NC8K)5NH2 (SEQ ID NO: 3), +⅓ MIC (E. coli AG100; polymer at ⅓ of its MIC) | Antibiotic MIC in presence of C12K(NC8K)7NH2 (SEQ ID NO: 4), +⅓ MIC (E. coli AG100; polymer at ⅓ of its MIC)
32 µg/mL: Antibiotic MIC (S. aureus 43300; no polymer (None), Table 11) | Antibiotic MIC (S. aureus 43300; no polymer (None), Table 12)
2 µg/mL: Antibiotic MIC, None (E. coli AG100; antibiotic alone (Table 20)) | Antibiotic MIC, None (E. coli AG100; antibiotic alone (Table 21)) | Antibiotic MIC in presence of C12K(NC8K)7NH2 (SEQ ID NO: 4), +¼ MIC (E. coli AG100; polymer at ¼ of its MIC)

CN(C)[C@@H]1C(O)=C(C(N)=O)C(=O)[C@@]2(O)C(O)=C3C(=O)c4c(O)cccc4[C@@](C)(O)[C@H]3C[C@@H]12 [Tetracycline, tetracycline]
0.5 µg/mL: Antibiotic MIC (S. aureus 43300; no polymer (None), Table 11) | Antibiotic MIC (S. aureus 43300; no polymer (None), Table 12)
0.25 µg/mL: Antibiotic MIC (S. aureus 43300; no polymer (None), Table 8) | Antibiotic MIC (S. aureus 43300; no polymer (None), Table 9) | Antibiotic MIC (S. aureus 43300; no polymer (None), Table 10)

gentamicin
32 µg/mL: Antibiotic MIC (P. mirabilis 1285 [1]) | Antibiotic MIC (P. mirabilis 1285 [2]; [7]) | Antibiotic MIC (P. mirabilis 1285 [2]; [8]) | Antibiotic MIC (P. mirabilis 1285 [2]; [9])
4 µg/mL: Antibiotic MIC (P. aeruginosa 8732; P. aeruginosa 8732, +¼ MIC (1.6 μM) C16(9-ene)KKNC12KNH2) | Antibiotic MIC (P. aeruginosa 8732; [10]) | Antibiotic MIC (P. aeruginosa 8732; [11]) | Antibiotic MIC (P. aeruginosa 8732; [12])
64 to 128 µg/mL: Antibiotic MIC (S. aureus 43300; [3]) | Antibiotic MIC (S. aureus 43300; [5]) | Antibiotic MIC (S. aureus 43300; [6]) | Antibiotic MIC (S. aureus 43300; no polymer (None), Table 9)
64 µg/mL: Antibiotic MIC (S. aureus 43300; no polymer (None), Table 10)
